Test results taken from US20030065039A1, “Biologically active 1,3-bis-aromatic-prop-2-en-1-ones, 1,3-bis-aromatic-propan-1-ones, and 1,3-bis-aromatic-prop-2-yn-1-ones” (Statens Serum Institute, priority 1997, published 2003).
Where two headings read alike, the source gives them in different places.

Assays:
Assay type in all cases: cell-based
[1] = test system: Leishmania promastigotes; assay: Leishmania promastigotes Assay; settings: promastigotes, 3H-thymidine uptake, read-out: Leishmania IC50 ± SD
Procedure, shortened: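 L. major (WHO Iran vaccine strain) and L. donovani MHOM/KE/85/NLB 274 promastigotes (3×10^6/ml, day 3 and 6 cultures) exposed to compound 2 h at 26 °C, then 3H-thymidine 18 h; incorporation counted by scintillation. Microscopic counts and flagellar motility also assessed.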

[2] = test system: human lymphocytes; assay: Lymphocyte Proliferation Assay; settings: PHA provoked proliferation of human lymphocytes, read-out: Lymphocytes IC50 ± SD
Procedure, shortened: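 Ficoll-isolated human blood mononuclear cells (0.63×10^5/ml) in RPMI 1640 with 5% FCS were cultured in triplicate with test compound and PHA or PPD for 3 or 7 days. Proliferation measured by ^3H-thymidine incorporation over the final 24 h; triplicate median recorded.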

[3] = test system: TNF-α; assay: TNF-α production by human peripheral blood mononuclear cells, culture supernatant (ELISA)
Protocol: Cells: Peripheral blood mononuclear cells obtained from healthy individuals. The cells were separated by a conventional method lymphoprep) and suspended in RMPI 1640 containing 5% human serum.
Stimulation of cytokine-release from human mononuclear cells: Human peripheral blood mononuclear cells from Danish donors were suspended in 1-10% (v/v) human serum in RPMI 1640 and adjusted to 2×10^6 cells per ml. 0.1 ml volumes were then dispensed into wells of 96-well microtiter plates. […] In some experiments cells were preincubated with drugs for 2 hrs before addition of stimulation antigens. The cultures were incubated overnight for TNF-α and IL-6 assays.
Supernatants were collected and assayed for TNF-α, IL-1α and IL-6 by ELISA procedures (Jakobsen et al., 1993, Fomsgaard et al., 1988, Hansen et al., 1991) with the following modifications. ELISA Maxisorp plates (Nunc, Roskilde, Denmark) were coated for 24 hrs at 4 C with 100 μl per well of 2.5 μg/ml rabbit polyclonal IgG to human recombinant TNF, IL-1α or IL-6 in 100 mM sodiumhydrogencarbonate. Non-attached sites were blocked for 1 h by 200 μl per well of 2% human serum slbumin in PBS (1 h at 37° C.), and the wells were washed 4 times in 2.5% NaCl, 0.1% Tween 20 (Merck, Darmstadt, Germany). This washing procedure was done after each of the following incubating steps:
1) 100 μl culture supernatants made to 50% (v/v) in incubation buffer (4% (v/v) normal rabbit serum, DAKO code X902), 1% polyethylene glycol (MW 6,000), 2.5% NaCl, 0.1% Tween 20 in phosphate buffered saline (PBS) were incubated 2 hrs at 37° C., dilutions of native as well as recombinant cytokine standards in the same incubation buffer were asssayed in parallel with the tested supernatants,
2) 100 μl per well of biotinilated rabbit antibodies to recombinant TNF-α, IL-1α or IL-6 (1.5 μg/ml in 0.5% human serum albumin, 0.1% Tween 20 in PBS) were added at 37° for 2 hrs,
3) […] per well of a 1:1000 dilution of streptavidin-peroxidase (Amersham, UK), at room temperature for 30 min.
Enzyme activities were quantitated after addition of 100 μl per well of 0.67 mg/ml 1,2-phenyldiamine hydrochloride (DAKO) dissolved in 100 mM citric acid-phosphate buffer, pH 5.0 containing 0.015% (v/v) H2O2. The reactions were stopped by adding 50 μl per well of 2.5 M H2SO4, and the optical densities are measured in an ELISA scanner at 490 nm against a test reference at 620 nm.
Assay: The compounds were prepared as stock solution at a concentration of 1 mg/ml in medium containing 10% DMSO. The dilutions were made in medium. The cells were stimulated with either SPAG (a malaria antigen TNF-inducer) or bacterial LPS. The supernatant of cell cultures were assayed for TNF-α using a commercial ELISA kit.

[4] = Experiment 1, LPS, 12.5 μg/ml, Control 1.17
[5] = Experiment 1, LPS, 25 μg/ml, Control 1.17
[6] = Experiment 1, LPS, 50 μg/ml, Control 1.17
[7] = Experiment 1, LPS, 100 μg/ml, Control 1.17
[8] = Experiment 1, SPAG, 12.5 μg/ml, Control 3.73
[9] = Experiment 1, SPAG, 25 μg/ml, Control 3.73
[10] = Experiment 1, SPAG, 50 μg/ml, Control 3.73
[11] = Experiment 1, SPAG, 100 μg/ml, Control 3.73
[12] = Experiment 2, LPS, 1.562 μg/ml, Control 2.06
[13] = Experiment 2, LPS, 3.125 μg/ml, Control 2.06
[14] = Experiment 2, LPS, 6.25 μg/ml, Control 2.06
[15] = Experiment 2, LPS, 12.5 μg/ml, Control 2.06
[16] = Experiment 2, SPAG, 1.562 μg/ml, Control 2.28
[17] = Experiment 2, SPAG, 3.125 μg/ml, Control 2.28
[18] = Experiment 2, SPAG, 6.25 μg/ml, Control 2.28
[19] = Experiment 2, SPAG, 12.5 μg/ml, Control 2.28

| SMILES | IC50 ([1]; Leishmania) [µM] | IC50 ([2]; Lymphocyte) [µM] | TNF-α production (OD values) [3, 4] [OD] | TNF-α production (OD values) [3, 5] [OD] | TNF-α production (OD values) [3, 6] [OD] | TNF-α production (OD values) [3, 7] [OD] | TNF-α production (OD values) [3, 8] [OD] | TNF-α production (OD values) [3, 9] [OD] | TNF-α production (OD values) [3, 10] [OD] | TNF-α production (OD values) [3, 11] [OD] | TNF-α production (OD values) [3, 12] [OD] | TNF-α production (OD values) [3, 13] [OD] | TNF-α production (OD values) [3, 14] [OD] | TNF-α production (OD values) [3, 15] [OD] | TNF-α production (OD values) [3, 16] [OD] | TNF-α production (OD values) [3, 17] [OD] | TNF-α production (OD values) [3, 18] [OD] | TNF-α production (OD values) [3, 19] [OD] | also measured |
| --- | --- | --- | --- | --- | --- | --- | --- | --- | --- | --- | --- | --- | --- | --- | --- | --- | --- | --- | --- |
| C=CC(C)(C)c1cc(/C=C/C(=O)c2ccc(O)cc2)c(OC)cc1O [Licochalcone A] | – | – | – | – | – | – | – | – | – | – | – | – | – | – | – | – | – | – | IC50 [1]: 13 ± 1 µM; IC50 [2]: 48 ± 5 µM; percentage inhibition of TNF-α production ([3]; Table 1, LPS 1:1000, drug 1 μg/ml): 0%; percentage inhibition of TNF-α production ([3]; Table 1, LPS 1:1000, drug 5 μg/ml): 0%; percentage inhibition of TNF-α production ([3]; Table 1, LPS 1:1000, drug 10 μg/ml): 40%; percentage inhibition of TNF-α production ([3]; Table 1, LPS 1:1000, drug 20 μg/ml, preincubated 2 hrs): 81%; percentage inhibition of TNF-α production ([3]; Table 1, SPAG 1:12.5, drug 1 μg/ml): 0%; percentage inhibition of TNF-α production ([3]; Table 1, SPAG 1:12.5, drug 5 μg/ml): 13%; percentage inhibition of TNF-α production ([3]; Table 1, SPAG 1:12.5, drug 10 μg/ml): 44%; percentage inhibition of TNF-α production ([3]; Table 1, SPAG 1:12.5, drug 20 μg/ml, preincubated 2 hrs): 97%; percentage inhibition of TNF-α production ([3]; Table 2, LPS 1:1000, drug 1.25 μg/ml): 4%; percentage inhibition of TNF-α production ([3]; Table 2, LPS 1:1000, drug 6.25 μg/ml): 3%; percentage inhibition of TNF-α production ([3]; Table 2, LPS 1:1000, drug 12.5 μg/ml): 38%; percentage inhibition of TNF-α production ([3]; Table 2, LPS 1:1000, drug 20 μg/ml, preincubated 2 hours): 54%; percentage inhibition of TNF-α production ([3]; Table 2, SPAG 1:12.5, drug 1.25 μg/ml): 54%; percentage inhibition of TNF-α production ([3]; Table 2, SPAG 1:12.5, drug 6.25 μg/ml): 82%; percentage inhibition of TNF-α production ([3]; Table 2, SPAG 1:12.5, drug 12.5 μg/ml): 94%; percentage inhibition of TNF-α production ([3]; Table 2, SPAG 1:12.5, drug 20 μg/ml, preincubated 2 hours): 100% |
| COc1cc(/C=C/C(=O)c2ccc(C3CCCCC3)cc2)cc(OC)c1 [PH104, 3,5-dimethoxy-4′-cyclohexylchalcone] | 31 ± 2 | 39 ± 2 | 1.15 | 0.59 | 0.41 | 0.31 | 0.93 | 0.13 | 0.03 | 0.01 | 1.54 | 1.41 | 1.08 | 0.91 | 2.47 | 2.44 | 1.50 | 0.43 | inhibition at 12.5 µg/mL ([3]; Homo sapiens, PBMC, concentration of 12.5 μg/ml, read-out: inhibition of the production of TNF-α): ~75%; inhibition of the production of TNF-α ([3]; at higher concentrations than 12.5 μg/ml): greater than 75% |
| COc1cc(/C=C/C(=O)c2ccc([N+](=O)[O-])cc2)cc(OC)c1 [PH105, 4′-nitro-3,5-dimethoxychalcone] | 16 ± 1 | 20 ± 1 | 1.07 | 1.13 | 1.69 | 0.99 | 1.94 | 2.00 | 4.00 | 2.3 | – | – | – | – | – | – | – | – | inhibitory effect on TNF-α production [3]: no or very little inhibitory effect |
| COc1cc(/C=C/C(=O)c2ccccc2F)cc(OC)c1 [PH135, 2′-fluoro-3,5-dimethoxychalcone] | 3.5 ± 0.8 | 6 ± 0.4 | 0.01 | 0.01 | 0.01 | 0.02 | 0.02 | 0.01 | 0.01 | 0.01 | 0.89 | 0.49 | 0.09 | 0.04 | 0.93 | 0.04 | 0.03 | 0.01 | – |
| COc1cc(/C=C/C(=O)c2cccc(F)c2)cc(OC)c1 [PH136, 3′-fluoro-3,5-dimethoxychalcone] | 5.5 ± 0.3 | 9.2 ± 0.5 | 0.00 | 0.00 | 0.00 | 0.01 | 0.01 | 0.00 | 0.01 | 0.00 | 1.70 | 1.81 | 2.18 | 0.08 | 3.29 | 4.00 | 1.39 | 0.02 | – |
